A word on the EC50: it is the concentration needed to bring the measured effect to its halfway point. One may read the IC50 as the midpoint of a concentration-inhibition curve.

This is an account of results in patent US20070049538A1, “METHODS FOR USING CUCURBITACIN COMPOUNDS” (SOUTH DAKOTA STATE UNIVERSITY, priority 2005, published 2007).

Data set [1] has as its system HSC-T6 cells. The data set can be described thus: Serum-driven HSC-T6 proliferation, experiment 3 (24 h, proliferating cells). In kind it is cell-based, rat. The settings on record: HSC-T6, 24 h, proliferating cells; read-out: Experiment 3 EC50 (A).
The subject of data set [2] is HepG2 cells. The data set can be described thus: Cucurbitacins cytotoxicity on HepG2 cells (MTT viability assay). Type of data set: cell-based, human.
The test system of data set [3] is HepG2 cells. The data set can be described thus: cells. The settings on record: for EC50: read-out: EC50 cytoprotection, Table 7, HepG2 against CCl4 toxicity, estimated. An excerpt: Experimental conditions were standardized on silybin. […]
The ratio of IC50-to-EC50 (hereafter T/A) is also indicated in this table, which gives the margin between toxic and cytoprotective concentrations.

Data set [4] has as its system HSC-T6 cells. In words: Cytotoxicity on HSC-T6 cells (experiment 3). Particulars: read-out: Experiment 3 IC50 (T). Type of data set: cell-based, rat. An excerpt:
Cytotoxicity of all cucurbitacin analogs was additionally measured in experiment 3 (Table 8).

A short description of data set [5]: Chromatographic hydrophobicity index (CHI) by RP-HPLC in buffered methanol. Type of data set: physicochemical. The settings on record: buffered methanol pH 7.0, Econosil C18 150 mm, Eq. (4).
The subject of data set [6] is HSC-T6 cells. In words: Serum-driven HSC-T6 proliferation, experiment 1 (4 h challenge, two days drug-free growth). Particulars: for EC50: HSC-T6, 4 h challenge, then two days drug-free media. Type of data set: cell-based, rat.

As to `CC(=O)OC(C)(C)/C=C/C(=O)[C@](C)(O)[C@H]1[C@H](O)C[C@@]2(C)[C@@H]3CC=C4[C@H](C[C@H](O)C(=O)C4(C)C)[C@]3(C)C(=O)C[C@]12C` [B, cucurbitacin B], the EC50 is 0.02 µM with HSC-T6 cells [1], 10.5 µM in the data set on HepG2 cells [3] and 1.18 µM in the data set on HSC-T6 cells [6]. In addition, the IC50 in the data set with HepG2 cells [2] (Table 4, 24 h incubation, MTT) was 27.7 ± 9 µM; in the data set on HepG2 cells [2] (Table 5), 27.7 ± 9 µM; in the data set on HepG2 cells [2] (Table 7) it was 27.7 µM; with HSC-T6 cells [4], 4.4 µM. Besides, the “cytoprotection on HepG2 cells” value in the data set with HepG2 cells [3] (at 6.25% of IC50, against CCl4) was 12.45 ± 1.11; in the data set on HepG2 cells [3] (at 12.5% of IC50, against CCl4), 25.25 ± 1.36; with HepG2 cells [3] (at 20% of IC50, against CCl4), 34.92 ± 2.76; in the data set on HepG2 cells [3] (at 50% of IC50, against CCl4), 60.01 ± 0.80. The CHIMeOH in data set [5] turned out to be 67.33.

As for `CC(=O)OC(C)(C)/C=C/C(=O)[C@](C)(O)[C@H]1[C@H](O)C[C@@]2(C)[C@@H]3CC=C4[C@@H](C=C(O[C@@H]5O[C@H](CO)[C@@H](O)[C@H](O)[C@H]5O)C(=O)C4(C)C)[C@]3(C)C(=O)C[C@]12C` [E-Gluc, cucurbitacin E glucoside], the EC50 with HSC-T6 cells [1] was 3.28 µM; in the data set on HepG2 cells [3] it was 45.3 µM. The IC50 in the data set with HepG2 cells [2] (Table 4, 24 h incubation, MTT) came to 227 ± 15.3 µM; in the data set with HepG2 cells [2] (Table 5) it was 227 ± 15.5 µM; with HepG2 cells [2] (Table 7), 227 µM; in the data set on HSC-T6 cells [4], 102 µM. Also, the “cytoprotection on HepG2 cells” value with HepG2 cells [3] (at 6.25% of IC50, against CCl4) is −2.36 ± 1.08; in the data set on HepG2 cells [3] (at 12.5% of IC50, against CCl4), 17.96 ± 1.14; in the data set on HepG2 cells [3] (at 20% of IC50, against CCl4) it was 49.44 ± 0.29; in the data set with HepG2 cells [3] (at 50% of IC50, against CCl4), 33.92 ± 2.92. Besides, in data set [5], the CHIMeOH turned out to be 62.27. Moreover, the anti-proliferation activity result with HSC-T6 cells [6] (Experiment 1, FIG. 7, 150 μM) is reported as “about 38%”. For the same molecule, the “Experiment 1 anti-proliferation activity” value in the data set with HSC-T6 cells [6] (measured at 100 μM) is given as “˜46%^a^”.

On to Cucurbitacin E-Me ether, for which the EC50 in the data set on HSC-T6 cells [1] is 0.08 µM; in the data set with HepG2 cells [3], 2.4 µM; with HSC-T6 cells [6], 3.05 µM. The IC50 in the data set with HepG2 cells [2] (Table 4, 24 h incubation, MTT) is 12 ± 3 µM; in the data set with HepG2 cells [2] (Table 5), 12 ± 3 µM; with HepG2 cells [2] (Table 7), 12 µM; in the data set with HSC-T6 cells [4] it was 2.8 µM. In data set [5], this molecule displayed a CHIMeOH of 71.55.

Consider cucurbitacin E, for which the EC50 in the data set with HSC-T6 cells [1] is 0.04 µM; in the data set with HepG2 cells [3], 3.2 µM; with HSC-T6 cells [6], 0.86 µM. The IC50 in the data set with HepG2 cells [2] (Table 4, 24 h incubation, MTT) was 15.3 µM; with HepG2 cells [2] (Table 5) it was 15.3 ± 6.6 µM; in the data set on HepG2 cells [2] (Table 7), 15.3 µM. Also, the “cytoprotection on HepG2 cells” value with HepG2 cells [3] (at 6.25% of IC50, against CCl4) turned out to be 12.41 ± 0.78; in the data set on HepG2 cells [3] (at 12.5% of IC50, against CCl4), 21.72 ± 0.75; with HepG2 cells [3] (at 20% of IC50, against CCl4), 49.21 ± 1.73; with HepG2 cells [3] (at 50% of IC50, against CCl4), 80.55 ± 6.80. Moreover, the CHIMeOH in data set [5] is listed as 69.6!^.
